Test results as given in patent US20150056209A1, “PEPTIDE MIMOTOPES TO OXIDATION SPECIFIC EPITOPES” (The Regents of the University of California, priority 2012, published 2015).
Where no end group is shown, it is not given here.

How the values were obtained:
LRO4 [1] = assay: Phage ELISA, binding of phage clones to coated LRO4; design: species or system murine; settings: 10^10 pfu/ml, OD 405-490 nm
Procedure: (§1) Phage ELISA was performed as described by NEB with minor modifications. Ninety six-well ELISA plates (Nunc Maxisorp) were coated with 5 μg/mL LRO4 mAb or control IgM mAb in NaHCO3 buffer (pH 8.6) at 50 μL/well ON at 4° C. Wells were washed with TBS containing 0.5% Tween 20 and then blocked with blocking buffer (TBS-T containing 1% BSA) at 200 μL/well for 1 hour at RT. After further washing, 10^10 pfu/ml of phage amplificates diluted in blocking buffer were added to the wells at 50 μL/well for 2 hours at RT. Wells were washed again, and an HRP-labeled anti-M13 mAb conjugate (no. 27-9421-01; GE Healthcare, Amersham, UK) diluted 1:1,000 in blocking buffer was added for 1 hour at RT followed by the addition of an 2,2′-azino-bis(3-ethylbenzothiazoline-6-sulphonic acid) (ABTS) (Sigma-Aldrich) substrate solution for 1 hour at RT. The binding reactivity of selected phage clones was measured at OD 405-490 nm using a BioTek Synergy 2 plate reader.

isotype control IgM = assay: Phage ELISA, binding of phage clones to isotype control IgM; settings: 10^10 pfu/ml, OD 405-490 nm
Procedure: Briefly, LRO4 or a control isotype anti-KLH IgM Ab (C48-6; BD Bioscience-Pharmingen, USA) were coated in buffer containing 0.1 M NaHCO3 (pH 8.5) on ELISA plates (Nunc Maxisorp, Roskilde, Denmark) overnight (ON) at 4° C. at a concentration of 100 μg/ml for the 1st, 50 μg/ml for the 2nd, and 10 μg/ml for the 3rd biopanning round. The next day, wells were washed with TBS containing 0.05% v/v Tween 20 (TBS-T) and incubated with blocking buffer containing 0.1M NaHCO3 (pH 8.6) and 5 mg/mL bovine serum albumin (BSA) for 1 hour at room temperature (RT). After further washing with TBS-T, 10 μL of a library solution (containing 2×10^12 phages) diluted in 100 μl of blocking buffer were first added to wells coated with control IgM (negative selection) and then unbound phages were transferred to wells coated with LRO4 (positive selection) and incubated at RT. The incubation time for negative or positive selection was reduced from 60 min for the 1st round to 30 min for the 2nd as well as 3rd biopanning round. Thereafter, plates were washed 5 times with TBS-T to remove unbound phages. To further elute nonspecifically bound phages, wells were incubated with 100 μL of 100 μg/ml of native LDL for 1 hour at RT. After washing up to 5 times with TBS-T, bound phages were eluted with 100 μL of elution buffer containing 0.2 M glycine-HCl (pH 2.2) and 1 mg/mL BSA. Eluates were transferred to microfuge tubes and neutralized with 15 μL of 1 M Tris-HCL (pH 9.1). The eluted phages were then titrated and amplified for the next round of panning. The 2nd and 3rd biopanning round was carried out using amplified eluates from the first and second round as input phages, respectively. To remove nonspecifically bound phages and to increase the affinity in the subsequent biopanning rounds, wells were washed 15 and 30 times with 0.1% TBS-T in the 2nd and 0.5% TBS-T in the 3rd rounds of biopanning, respectively. In the last biopanning round, LRO4-bound phages were competitively eluted with increasing concentrations (3-150 μg/mL) of MDA-LDL diluted in blocking buffer followed by elution using elution buffer.
as §1

LRO4 [2] = assay: Competitive phage ELISA, phage binding to LRO4 in presence of MDA-LDL; design: species or system murine; settings: in the presence of 50 μg/mL MDA-LDL
Procedure: For competitive phage ELISA, plates were coated with 5 μg/mL LRO4 and binding of 25 μL of phage solution at 2×10^10 pfu/mL was tested in the presence of 25 μL of MDA-LDL at 100 μg/mL. Bound phages were detected as described above and data expressed as values obtained in presence of competitor (B) divided by the values obtained in the absence of competitor (B0). A reciprocal competition assay was performed in which 50 μL of 5 μg/mL MDA-LDL was coated on microtiter wells, and binding of LRO4 that was preincubated for 30 min at RT with a solution containing either no or 1×10^10 pfu/mL phages with or without peptide was tested by chemiluminescent ELISA.
Table 2A-B. Binding characteristics of MDA-phagotopes. Sequences and binding characteristics of selected phagotopes from (A) the Ph.D.-12 and (B) the Ph.D.7C7 libraries, respectively. Individual phages were selected and amplified after the third round of biopanning, and binding to an isotype control IgM, LRO4, and LRO4 in the presence of 50 μg/mL MDA-LDL was measured by phage ELISA, as described in Methods. Numbers indicate OD values or for inhibition studies the fraction of OD values obtained in the absence and presence of soluble MDA-LDL (B/B0). Sequences indicate amino acid residues in peptide sequences that were deducted from the DNA sequence of each phagotope. “X” indicates an unidentified amino acid at this position. * for clones with identical sequence representative data of one clone are provided. (SEQ ID NOs:6-37)

LRO4 [3] = assay: Chemiluminescent ELISA, binding of LRO4 to plated or captured peptides; design: species or system murine; settings: peptides directly plated at increasing concentrations; LRO4 5 μg/mL
Procedure: Binding of mAb as well as plasma Abs to respective antigens was measured by chemiluminescent ELISA. Antigens were coated at 5 μg/mL in PBS/EDTA (pH 7.4). Synthetic peptides were directly coated at 10 μg/mL (P1) or 5 μg/mL (P2) in 0.1M NaHCO3 buffer (pH 8.6), unless indicated differently. Biotinylated peptides were immobilized at indicated concentrations in 0.1M NaHCO3 buffer (pH 8.6) on wells pre-coated with 10 μg/mL neutravidin (Pierce, Rockford, Ill., USA). Ab binding was measured using alkaline phosphatase (AP) labeled secondary Abs (described below) followed by chemiluminescent detection. For the detection of human autoAbs, a 1:400 plasma dilution was used. For human assays, internal controls consisting of high and low standard plasma samples were included on each microtiter plate to detect potential variations between microtiter plates. The intra-assay coefficients of variation for all assays were 10 to 14%.
The following secondary Abs were used: Alkaline Phosphatase (AP)-labeled goat anti-mouse IgM (μ-chain specific), IgG (γ-chain specific), IgG1 (Sigma-Aldrich) and IgG2c (Southern Biotech). For the detection of human autoAbs AP-labeled goat anti human IgG (γ-chain specific) and IgM (μ-chain specific) (Sigma-Aldrich) were used. Biotin-conjugated Abs were detected with AP-conjugated neutravidin (1:10,000; Pierce).

LRO4 [4] = assay: Competition immunoassays for LRO4 binding; design: species or system murine; settings: 0.5 μg/mL LRO4; 100 ng/mL captured P2; increasing concentrations of soluble competitor
Procedure: The specific binding of LRO4 to mimotopes was determined by competition immunoassays. Fifty μl of 0.5 μg/mL MAA-BSA or 100 ng/mL of biotinylated peptides were plated as described above. LRO4 antibody was incubated in TBS-1% BSA with or without increasing concentrations of competitors (BSA, MAA-BSA, P1, P2 and control peptide) for 30 minutes at RT. Binding of LRO4 was determined by chemiluminescent ELISA. The specificity of human plasma Ab binding to P1 was determined in a similar manner. In preliminary experiments, aliquots of pooled plasma samples (n=26) from a published cohort of healthy subjects were diluted in 1% BSA-TBS to yield a limiting plasma dilution. Diluted plasma (1:1,000) and increasing concentrations of competitors were incubated overnight at 4° C. Samples were then centrifuged at 15,800 g for 45 minutes at 4° C. to pellet immune complexes, and supernatants were analyzed for binding to plated P1 (10 μg/mL) by chemiluminescent ELISA.

[5] = Table 2B, Ph.D.7C7 library clones
[6] = Table 2A, Ph.D.-12 library clones

Row | Binding of phages to LR04 (LRO4 [1]; [6]) [OD] | Binding of phages to control IgM (isotype control IgM; [6]) [OD] | Inhibition of binding to LR04 (B/Bo) (LRO4 [2]; [6]) | binding of LRO4 to plated peptides (LRO4 [3]) | competition for LRO4 binding to captured biotinylated P2 (LRO4 [4]) | Substance | Binding of phages to LR04 (LRO4 [1]; [5]) [OD] | Binding of phages to control IgM (isotype control IgM; [5]) [OD] | Inhibition of binding to LR04 (B/Bo) (LRO4 [2]; [5])
1 | – | – | – | – | – | NNQNMPL [Cb9] | 0.7 | 0.01 | 0.02
2 | 0.98 | 0.02 | 0.18 | – | – | HSWSNYWGHQHA [A32] | – | – | –
3 | – | – | – | – | – | NNWKMPL [Cb4] | 0.6 | 0.1 | 0.02
4 | 1.34 | 0.04 | 0.15 | – | – | ASISNLTLSRFM [M15] | – | – | –
5 | – | – | – | – | – | NNSKMRL [Ca2] | 0.8 | 0.2 | 0.12
6 | 1.16 | 0.03 | 0.10 | – | – | HSLSNIQMATLA [M10, G8] | – | – | –
7 | 0.63 | 0.05 | 0.14 | – | – | HQLSNKDEQTPQ [A33] | – | – | –
8 | – | – | – | – | – | NNYNMPL [Cb589] | 0.8 | 0.1 | 0.03
9 | – | – | – | – | – | KNSXQPL [Ca4] | 0.9 | 0.1 | 0.13
10 | 1.04 | 0.03 | 0.06 | – | – | EVMNNWTLASIM [M30] | – | – | –
11 | – | – | – | – | – | NNSNMPL [Cb10] | 0.6 | 0.2 | 0.02
12 | 1.16 | 0.03 | 0.14 | – | – | ESWTNSWAHYFG [A36, B41, M35] | – | – | –
13 | – | – | – | – | – | NNWNMPL [Ca1, Ca7] | 0.8 | 0.1 | 0.04
14 | – | – | – | not recognized by LRO4 | had no effect | ACSPNLNMNC (ACSPNLNMNCGGGS-NH2; cysteine pairing not given here) [scrambled peptide of P2, reference compound] | – | – | –
15 | – | – | – | – | – | QNSHMPL [Ca3] | 0.5 | 0.1 | 0.04
16 | 0.85 | 0.08 | 0.25 | – | – | QNMNNWTLASIM [A31] | – | – | –
17 | 1.67 | 0.03 | 0.25 | – | – | QSYTNDDVLRIS [M19] | – | – | –
18 | – | – | – | – | – | NNRNMPL [Ca59, Cb1] | 0.8 | 0.1 | 0.06
19 | 1.45 | 0.04 | 0.10 | – | – | HRISNYAMELHS [G4] | – | – | –
20 | 1.56 | 0.03 | 0.10 | – | – | HRLTNSEQAALP [M3, M5] | – | – | –
21 | 1.56 | 0.03 | 0.20 | – | – | HRMTNNAMDVFM [M6, G10] | – | – | –
22 | 1.37 | 0.03 | 0.10 | – | – | ADPFSPTNRIPL [M7] | – | – | –
23 | – | – | – | – | – | NNSHMPL [Ca9, Cb3, Ca8, Ca10] | 0.9 | 0.2 | 0.04
24 | 1.35 | 0.03 | 0.40 | – | – | HSLTNTQMTQLS [M31] | – | – | –
25 | 1.17 | 0.03 | 0.20 | – | – | ESWNTNSWAMYFG [M2] | – | – | –
26 | 0.82 | 0.11 | 0.11 | – | – | NSRTNNSQWTFQ [A34] | – | – | –
27 | – | – | – | – | – | NNSXMPL [Ca6] | 0.7 | 0.0 | 0.04
28 | 1.57 | 0.04 | 0.20 | – | – | TAVTNSMMERLW [M8] | – | – | –
29 | – | – | – | – | – | DWAPHFT [Cb2] | 1.0 | 0.2 | 0.03

Row | Substance | Binding of phages to LR04 (LRO4 [1]; [6]) [OD] | Binding of phages to control IgM (isotype control IgM; [6]) [OD] | Inhibition of binding to LR04 (B/Bo) (LRO4 [2]; [6]) | binding of LRO4 to plated peptides (LRO4 [3]) | competition for LRO4 binding to captured biotinylated P2 (LRO4 [4]) | Binding of phages to LR04 (LRO4 [1]; [5]) [OD] | Binding of phages to control IgM (isotype control IgM; [5]) [OD] | Inhibition of binding to LR04 (B/Bo) (LRO4 [2]; [5])
30 | GWGNKTPSQDVH [A39] | 1.19 | 0.05 | 0.19 | – | – | – | – | –
31 | NSWTNASLSTFH [A40] | 0.89 | 0.04 | 0.10 | – | – | – | – | –
32 | HRMTNAMHHFMG [A38] | 0.64 | 0.21 | 0.10 | – | – | – | – | –
